# Legend:
# mouse TAAR1 = mouse TAAR1 (Mus musculus (Mouse), UniProt Q923Y8); experiment: Radioligand binding assay on mouse TAAR1; details: mouse TAAR1 (first value of the cell), HEK-293 membranes; read-out: Ki (μM) mouse/rat
# Procedure, shortened: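 Membranes from HEK293 cells stably expressing mouse TAAR1, Kd of radioligand determined per batch by saturation. Compounds tested 10 pM to 10 μM in duplicate, incubated 1 h at 4 °C, then filtration over PEI-soaked GF/C filters and scintillation counting.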
# rat TAAR1 = rat TAAR1 (Rattus norvegicus (Rat), UniProt Q923Y9); experiment: Radioligand binding assay on rat TAAR1; details: rat TAAR1 (second value of the cell), HEK-293 membranes; read-out: Ki (μM) mouse/rat
# Procedure, shortened: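 Membranes from HEK293 cells stably expressing rat TAAR1 were used, with radioligand Kd determined by saturation for each batch. Compounds (10 pM to 10 μM, in duplicate) were incubated for 1 h at 4 °C. Bound radioactivity was collected by filtration onto PEI-soaked GF/C filters and counted by scintillation.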
# Sequence of rat TAAR1 (Q923Y9 whole entry): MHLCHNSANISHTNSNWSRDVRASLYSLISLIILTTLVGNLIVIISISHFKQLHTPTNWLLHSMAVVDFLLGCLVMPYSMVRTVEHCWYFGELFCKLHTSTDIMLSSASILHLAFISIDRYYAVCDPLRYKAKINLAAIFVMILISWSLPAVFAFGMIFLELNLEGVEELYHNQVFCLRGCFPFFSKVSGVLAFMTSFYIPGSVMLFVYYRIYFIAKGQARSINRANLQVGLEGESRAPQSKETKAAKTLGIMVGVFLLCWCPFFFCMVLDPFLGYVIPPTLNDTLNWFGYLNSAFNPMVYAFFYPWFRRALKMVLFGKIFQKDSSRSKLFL
# Sequence of mouse TAAR1 (Q923Y8 whole entry): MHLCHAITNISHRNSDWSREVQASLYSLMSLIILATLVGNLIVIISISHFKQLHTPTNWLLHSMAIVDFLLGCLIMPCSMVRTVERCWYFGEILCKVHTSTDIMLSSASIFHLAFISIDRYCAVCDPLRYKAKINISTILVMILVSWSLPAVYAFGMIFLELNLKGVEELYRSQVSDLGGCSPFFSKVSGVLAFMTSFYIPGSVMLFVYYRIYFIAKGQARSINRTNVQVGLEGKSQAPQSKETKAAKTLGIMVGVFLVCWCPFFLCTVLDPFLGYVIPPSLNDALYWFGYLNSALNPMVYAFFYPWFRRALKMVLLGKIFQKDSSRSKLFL
SMILES,Ki (mouse TAAR1) [µM],Ki (rat TAAR1) [µM]
"Cc1cc(Nc2ccc([C@H]3CNCCO3)cc2)ncc1Br [Example 62, (S)-5-Bromo-4-methyl-N-(4-(morpholin-2-yl)phenyl)pyridin-2-amine]",0.0005,0.0094
"Clc1cc(Nc2ccc([C@H]3CNCCO3)cc2)c(Cl)cn1 [Example 63, (S)-2,5-Dichloro-N-(4-(morpholin-2-yl)phenyl)pyridin-4-amine]",0.373,1.49
"Cc1cnc(Nc2ccc([C@H]3CNCCO3)cc2)cc1Br [Example 64, (S)-4-Bromo-5-methyl-N-(4-(morpholin-2-yl)phenyl)pyridin-2-amine]",0.0027,0.101
"c1cc([C@H]2CNCCO2)ccc1Nc1ccc2c(c1)OCO2 [Example 65, (S)—N-(4-(Morpholin-2-yl)phenyl)benzo[d][1,3]dioxol-5-amine]",0.0131,0.629
"Clc1ccc(Nc2ccc([C@@H]3CNCCO3)cc2)cn1 [Example 67, (R)-6-Chloro-N-(4-(morpholin-2-yl)phenyl)pyridin-3-amine]",0.0074,0.292
"CCc1cnc(Nc2ccc([C@@H]3CNCCO3)cc2)nc1 [Example 68, (R)-5-Ethyl-N-(4-(morpholin-2-yl)phenyl)pyrimidin-2-amine]",0.0094,0.0751
"Clc1ccc(Nc2ccc([C@@H]3CNCCO3)cc2)nc1 [Example 69, (R)-5-Chloro-N-(4-(morpholin-2-yl)phenyl)pyridin-2-amine]",0.0014,0.0438
"CCOc1cc(Nc2ccc([C@H]3CNCCO3)cc2)cnc1Cl [Example 71, (S)-6-Chloro-5-ethoxy-N-(4-(morpholin-2-yl)phenyl)pyridin-3-amine]",0.0118,0.168
"CCc1cnc(Nc2ccc([C@H]3CNCCO3)cc2)nc1C [Example 72, (5-Ethyl-4-methyl-pyrimidin-2-yl)-((S)-4-morpholin-2-yl-phenyl)-amine]",0.0171,0.22
"Cc1nc(Nc2ccc([C@H]3CNCCO3)cc2)ncc1C(C)C [Example 73, (5-Isopropyl-4-methyl-pyrimidin-2-yl)-((S)-4-morpholin-2-yl-phenyl)-amine]",0.0096,0.035
"c1cc([C@H]2CNCCO2)ccc1Nc1ncc2c(n1)CCCC2 [Example 74, ((S)-4-Morpholin-2-yl-phenyl)-(5,6,7,8-tetrahydro-quinazolin-2-yl)-amine]",0.0059,0.0295
"O=[N+]([O-])c1cnc(Nc2ccc([C@H]3CNCCO3)cc2)nc1 [Example 75, ((S)-4-Morpholin-2-yl-phenyl)-(5-nitro-pyrimidin-2-yl)-amine]",0.0141,0.228
"Fc1cc(Cl)cnc1Nc1ccc([C@H]2CNCCO2)cc1 [Example 77, (S)-5-Chloro-3-fluoro-N-(4-(morpholin-2-yl)phenyl)pyridin-2-amine]",0.0053,0.13
"CS(=O)(=O)c1cnc(Nc2ccc([C@H]3CNCCO3)cc2)nc1 [Example 78, (5-Methanesulfonyl-pyrimidin-2-yl)-((S)-4-morpholin-2-yl-phenyl)-amine]",0.11,3.19
"FC(F)(F)c1cc(Nc2ccc([C@H]3CNCCO3)cc2)ncc1Cl [Example 82, (S)-5-Chloro-N-(4-(morpholin-2-yl)phenyl)-4-(trifluoromethyl)pyridin-2-amine]",0.0008,0.0101
"Cc1cc(Nc2ccc([C@H]3CNCCO3)cc2)ncc1Cl [Example 83, (S)-5-Chloro-4-methyl-N-(4-(morpholin-2-yl)phenyl)pyridin-2-amine]",0.0006,0.0222
"c1cc([C@@H]2CNCCO2)ccc1Nc1ncc(C2CC2)cn1 [Example 86, (5-Cyclopropyl-pyrimidin-2-yl)-((R)-4-morpholin-2-yl-phenyl)-amine]",0.0024,0.009
"CCCc1cnc(Nc2ccc([C@@H]3CNCCO3)cc2)nc1 [Example 93, ((R)-4-Morpholin-2-yl-phenyl)-(5-propyl-pyrimidin-2-yl)-amine]",0.005,0.0222
"FC(F)(F)c1cnc(Nc2ccc([C@@H]3CNCCO3)cc2)nc1 [Example 95, ((R)-4-Morpholin-2-yl-phenyl)-(5-trifluoromethyl-pyrimidin-2-yl)-amine]",0.0057,0.0223
"Clc1cnc(Nc2ccc([C@@H]3CNCCO3)cc2)nc1 [Example 103, (R)-5-Chloro-N-(4-(morpholin-2-yl)phenyl)pyrimidin-2-amine]",0.0044,0.05
"Clc1cnc(Nc2ccc([C@H]3CNCCO3)cc2)nc1 [Example 104, (S)-5-Chloro-N-(4-(morpholin-2-yl)phenyl)pyrimidin-2-amine]",0.0041,0.105

SMILES,Ki (mouse TAAR1) [µM],Ki (rat TAAR1) [µM]
"CCOc1cnc(Nc2ccc([C@@H]3CNCCO3)cc2)nc1 [Example 105, (5-Ethoxy-pyrimidin-2-yl)-((R)-4-morpholin-2-yl-phenyl)-amine]",0.0116,0.127
"CCc1cnc(Nc2ccc([C@@H]3CNCCO3)cc2C)nc1 [Example 106, (5-Ethyl-pyrimidin-2-yl)-((R)-2-methyl-4-morpholin-2-yl-phenyl)-amine]",0.0086,0.0814
"CCc1cnc(Nc2ccc([C@H]3CNCCO3)cc2C)nc1 [Example 107, (5-Ethyl-pyrimidin-2-yl)-((S)-2-methyl-4-morpholin-2-yl-phenyl)-amine]",0.005,0.0877
"CCc1cnc(Nc2ccc([C@@H]3CCCNC3)cc2)nc1 [Example 112, (5-Ethyl-pyrimidin-2-yl)-((S)-4-piperidin-3-yl-phenyl)-amine]",0.0038,0.197
"c1ccc(-c2cc(Nc3ccc([C@H]4CNCCO4)cc3)n[nH]2)cc1 [Example 113, (S)—N-(4-(Morpholin-2-yl)phenyl)-5-phenyl-1H-pyrazol-3-amine]",0.0011,0.0877
"CCOc1cnc(Nc2ccc([C@@H]3CCCNC3)cc2)nc1 [Example 114, (5-Ethoxy-pyrimidin-2-yl)-((S)-4-piperidin-3-yl-phenyl)-amine]",0.0212,0.996
"c1ccc(-c2nnc(Nc3ccc([C@H]4CNCCO4)cc3)o2)cc1 [Example 115, (S)—N-(4-(Morpholin-2-yl)phenyl)-5-phenyl-1,3,4-oxadiazol-2-amine]",0.0079,0.235
"CCc1cnc(Nc2ccc([C@@H]3CNCCO3)cc2F)nc1 [Example 116, (5-Ethyl-pyrimidin-2-yl)-((R)-2-fluoro-4-morpholin-2-yl-phenyl)-amine]",0.0039,0.007
"CCc1cnc(Nc2ccc([C@H]3CNCCO3)cc2F)nc1 [Example 117, (5-Ethyl-pyrimidin-2-yl)-((S)-2-fluoro-4-morpholin-2-yl-phenyl)-amine]",0.0034,0.0104
"CC(C)Oc1cnc(Nc2ccc([C@H]3CNCCO3)cc2)nc1 [Example 122, (5-Isopropoxy-pyrimidin-2-yl)-((S)-4-morpholin-2-yl-phenyl)-amine]",0.0079,0.0847
"CC(C)Oc1cnc(Nc2ccc([C@@H]3CNCCO3)cc2)nc1 [Example 123, (5-Isopropoxy-pyrimidin-2-yl)-((R)-4-morpholin-2-yl-phenyl)-amine]",0.0174,0.0796
"c1cc([C@H]2CNCCO2)ccc1Nc1ncc(OCC2CC2)cn1 [Example 124, (S)-5-(Cyclopropylmethoxy)-N-(4-(morpholin-2-yl)phenyl)pyrimidin-2-amine]",0.0036,0.0348
"c1cc([C@@H]2CNCCO2)ccc1Nc1ncc(OCC2CC2)cn1 [Example 125, (R)-5-(Cyclopropylmethoxy)-N-(4-(morpholin-2-yl)phenyl)pyrimidin-2-amine]",0.0045,0.0278
"CCCc1cnc(Nc2ccc([C@@H]3CNCCO3)cc2F)nc1 [Example 128, ((R)-2-Fluoro-4-morpholin-2-yl-phenyl)-(5-propyl-pyrimidin-2-yl)-amine]",0.0049,0.0039
"CCCc1cnc(Nc2ccc([C@H]3CNCCO3)cc2F)nc1 [Example 129, ((S)-2-Fluoro-4-morpholin-2-yl-phenyl)-(5-propyl-pyrimidin-2-yl)-amine]",0.0043,0.0068
"Fc1cc([C@@H]2CNCCO2)ccc1Nc1ncc(Cl)cn1 [Example 130, (5-Chloro-pyrimidin-2-yl)-((R)-2-fluoro-4-morpholin-2-yl-phenyl)-amine]",0.0051,0.0199
"Fc1cc([C@H]2CNCCO2)ccc1Nc1ncc(Cl)cn1 [Example 131, (5-Chloro-pyrimidin-2-yl)-((S)-2-fluoro-4-morpholin-2-yl-phenyl)-amine]",0.0028,0.0379
"CCOc1cnc(Nc2ccc([C@@H]3CNCCO3)cc2F)nc1 [Example 132, (5-Ethoxy-pyrimidin-2-yl)-((R)-2-fluoro-4-morpholin-2-yl-phenyl)-amine]",0.0047,0.0182
"CCOc1cnc(Nc2ccc([C@H]3CNCCO3)cc2F)nc1 [Example 133, (5-Ethoxy-pyrimidin-2-yl)-((S)-2-fluoro-4-morpholin-2-yl-phenyl)-amine]",0.0052,0.0387
"Fc1cc([C@@H]2CNCCO2)ccc1Nc1ncc(C(F)(F)F)cn1 [Example 134, ((R)-2-Fluoro-4-morpholin-2-yl-phenyl)-(5-trifluoromethyl-pyrimidin-2-yl)-amine]",0.0069,0.0079
"Fc1cc([C@H]2CNCCO2)ccc1Nc1ncc(C(F)(F)F)cn1 [Example 135, ((S)-2-Fluoro-4-morpholin-2-yl-phenyl)-(5-trifluoromethyl-pyrimidin-2-yl)-amine]",0.0057,0.0198

# Reference: US8802673B2, “Heterocyclic amine derivatives” (Hoffmann-La Roche Inc, priority 2011, dated 2014)
